Source: US20060009478A1, “Methods for the treatment of back pain” (priority 2003, published 2006)

System: patients with moderate to severe chronic low back pain
Assay: Pain intensity (daily diary, 11-point numerical scale), low back pain study with titration and 12-week fixed-dose period
Assay type: in vivo, human
Settings: for Pain intensity, change from baseline, MEAN (SD) / Pain intensity, percent change from baseline, MEAN (SD) / Pain intensity, actual value, MEAN (SD): LOCF imputation, average of last three days of dosing week; for Pain intensity, change from baseline, MEAN (SD) / Pain intensity, percent change from baseline, MEAN (SD) / Pain intensity, change from baseline, MAXIMUM / Pain intensity, change from baseline, MEDIAN / Pain intensity, change from baseline, MINIMUM / Pain intensity, percent change from baseline, MAXIMUM / Pain intensity, percent change from baseline, MEDIAN / Pain intensity, percent change from baseline, MINIMUM / Pain intensity, actual value, MEAN (SD) / Pain intensity, actual value, MAXIMUM / Pain intensity, actual value, MEDIAN / Pain intensity, actual value, MINIMUM: ITT population
Protocol: A multicenter, randomized, double-blind, active- and placebo-controlled study was designed and conducted.
In addition, adverse events and opioid-related adverse events were to be recorded in the daily diary.
For the pain intensity (PI) scale assessment, the patient was prompted with the question “How would you rate your overall pain intensity at this time?” and the PI score was recorded in the clinic at the Screening and Baseline Visits. Pain intensity was also assessed by prompting the patient with the questions “How would you rate your overall pain intensity during the past 24 hours?” and a daily PI diary score was recorded at bedtime. For both Pain Intensity prompts, the response was scored on an 11-point numerical scale (0=no pain and 10=severe pain).
The baseline average daily pain intensity score for each patient was calculated as the average of the daily bedtime pain intensity scores recorded during the 3 days immediately prior to baseline/start of titration period visit. The post-baseline average daily pain intensity scores were calculated as the average of the daily bedtime pain intensity scores recorded during the last 3 days of dosing prior to each visit. Missing data was imputed using the last-observation-carried-forward (LOCF) approach for efficacy variables in the fixed-dose period. If the first visit in the fixed-dose period was missing, the last value in the titration period was imputed forward. Unless indicated, all testing of statistical significance was two-sided, and a difference resulting in a p-value of equal to or less than 0.05 was considered statistically significant.
A primary efficacy endpoint was the percent change from baseline to the end of the fixed-dose period (Week 12) in average daily pain intensity. The percent change from baseline was calculated as [PI(baseline)−PI(fixed-dose)]/PI(baseline)*100. Data was summarized descriptively by treatment group. An analysis of covariance (ANCOVA) model including treatment and center as effects and baseline pain intensity as the covariate was used for global and pairwise inferences. Separate models were used to evaluate both the treatment by center and treatment by baseline pain intensity interaction terms.
A primary comparison of interest was oxycodone and naltrexone (e.g., BID or QID) versus oxycodone (e.g., QID). Secondary analyses included actual and percent change from baseline values of daily pain index, SF-12, and Oswestry disability index summarized descriptively by treatment group for both the titration and fixed-dose periods. Treatments were compared globally and in pairwise fashion at each visit in the fixed-dose period using an ANCOVA model that included treatment and center as effects and baseline pain intensity as the covariate. Separate models were used to evaluate both the treatment by center and treatment by baseline pain intensity interaction terms.

[1] = baseline to fixed dose week 1, LOCF
[2] = baseline to fixed dose week 2, LOCF
[3] = baseline to fixed dose week 3, LOCF
[4] = baseline to fixed dose week 4, LOCF
[5] = baseline to fixed dose week 5, LOCF
[6] = baseline to fixed dose week 6, LOCF

Which “Pain intensity, change from baseline, MEAN (SD)” value (“Pain intensity, change … (SD)” for short) (baseline to fixed dose week 1) does the source give for `COc1ccc2c3c1O[C@H]1C(=O)CC[C@@]4(O)[C@@H](C2)N(C)CC[C@]314` [OXY QID, oxycodone] here?
The value was −3.6 (2.60).

And the “Pain intensity, percent change from baseline, MEAN (SD)” value (“Pain intensity, percent change … (SD)” for short) (baseline to fixed dose week 1)?
The value was −47.5 (33.12) percent.

What about the “Pain intensity, change from baseline, MAXIMUM” value [1] of the same compound?
Its value is 3.0.

What about the “Pain intensity, change from baseline, MEDIAN” value [1] of the same compound?
The value was −3.7.

And the “Pain intensity, change from baseline, MINIMUM” value [1]?
Its value is −9.7.

What about the “Pain intensity, percent change from baseline, MAXIMUM” value [1] of the same compound?
Its value is 42.9%.

What about the “Pain intensity, percent change from baseline, MEDIAN” value [1] of the same compound?
Its value is −52.4%.

What about the “Pain intensity, percent change from baseline, MINIMUM” value [1] of the same compound?
Its value is −100.0%.

What about the “Pain intensity, change … (SD)” value (baseline to fixed dose week 2) of the same compound?
The value was −3.6 (2.59).

And the “Pain intensity, percent change … (SD)” value (baseline to fixed dose week 2)?
Its value is −47.1 (32.56) percent.

What about the “Pain intensity, change from baseline, MAXIMUM” value [2] of the same compound?
Its value is 3.0.

And the “Pain intensity, change from baseline, MEDIAN” value [2]?
The value was −3.7.

What about the “Pain intensity, change from baseline, MINIMUM” value [2] of the same compound?
The value was −9.7.

What about the “Pain intensity, percent change from baseline, MAXIMUM” value [2] of the same compound?
Its value is 42.9%.

And the “Pain intensity, percent change from baseline, MEDIAN” value [2]?
The value was −50.0%.

And the “Pain intensity, percent change from baseline, MINIMUM” value [2]?
The value was −100.0%.

And the “Pain intensity, change … (SD)” value (baseline to fixed dose week 3)?
Its value is −3.7 (2.64).

And the “Pain intensity, percent change … (SD)” value (baseline to fixed dose week 3)?
Its value is −47.9 (33.29) percent.

What about the “Pain intensity, change from baseline, MAXIMUM” value [3] of the same compound?
Its value is 3.0.

And the “Pain intensity, change from baseline, MEDIAN” value [3]?
The value was −4.0.

And the “Pain intensity, change from baseline, MINIMUM” value [3]?
The value was −9.7.

What about the “Pain intensity, percent change from baseline, MAXIMUM” value [3] of the same compound?
The value was 42.9%.

What about the “Pain intensity, percent change from baseline, MEDIAN” value [3] of the same compound?
Its value is −54.2%.

What about the “Pain intensity, percent change from baseline, MINIMUM” value [3] of the same compound?
The value was −100.0%.

And the “Pain intensity, change … (SD)” value (baseline to fixed dose week 4)?
The value was −3.6 (2.68).

And the “Pain intensity, percent change … (SD)” value (baseline to fixed dose week 4)?
The value was −47.4 (33.84) percent.

What about the “Pain intensity, change from baseline, MAXIMUM” value [4] of the same compound?
The value was 3.0.

And the “Pain intensity, change from baseline, MEDIAN” value [4]?
Its value is −4.0.

And the “Pain intensity, change from baseline, MINIMUM” value [4]?
Its value is −9.7.

And the “Pain intensity, percent change from baseline, MAXIMUM” value [4]?
The value was 42.9%.

What about the “Pain intensity, percent change from baseline, MEDIAN” value [4] of the same compound?
The value was −53.3%.

And the “Pain intensity, percent change from baseline, MINIMUM” value [4]?
The value was −100.0%.

And the “Pain intensity, change … (SD)” value (baseline to fixed dose week 5)?
The value was −3.6 (2.72).

And the “Pain intensity, percent change … (SD)” value (baseline to fixed dose week 5)?
The value was −47.4 (34.44) percent.

What about the “Pain intensity, change from baseline, MAXIMUM” value [5] of the same compound?
The value was 3.0.

And the “Pain intensity, change from baseline, MEDIAN” value [5]?
The value was −4.0.

What about the “Pain intensity, change from baseline, MINIMUM” value [5] of the same compound?
Its value is −9.7.

And the “Pain intensity, percent change from baseline, MAXIMUM” value [5]?
The value was 42.9%.

What about the “Pain intensity, percent change from baseline, MEDIAN” value [5] of the same compound?
The value was −52.4%.

What about the “Pain intensity, percent change from baseline, MINIMUM” value [5] of the same compound?
Its value is −100.0%.

What about the “Pain intensity, change … (SD)” value (baseline to fixed dose week 6) of the same compound?
Its value is −3.6 (2.70).

And the “Pain intensity, change from baseline, MAXIMUM” value [6]?
The value was 3.0.

And the “Pain intensity, change from baseline, MEDIAN” value [6]?
The value was −4.0.

What about the “Pain intensity, change from baseline, MINIMUM” value [6] of the same compound?
Its value is −9.7.

What about the “Pain intensity, actual value, MEAN (SD)” value (fixed dose week 1) of the same compound?
Its value is 3.9 (2.53).

And the “Pain intensity, actual value, MAXIMUM” value (fixed dose week 1, LOCF)?
The value was 10.0.

What about the “Pain intensity, actual value, MEDIAN” value (fixed dose week 1, LOCF) of the same compound?
Its value is 3.7.

What about the “Pain intensity, actual value, MINIMUM” value (fixed dose week 1, LOCF) of the same compound?
Its value is 0.0.

What about the “Pain intensity, actual value, MEAN (SD)” value (fixed dose week 2) of the same compound?
Its value is 3.9 (2.47).

What about the “Pain intensity, actual value, MAXIMUM” value (fixed dose week 2, LOCF) of the same compound?
Its value is 10.0.

What about the “Pain intensity, actual value, MEDIAN” value (fixed dose week 2, LOCF) of the same compound?
Its value is 3.7.

What about the “Pain intensity, actual value, MINIMUM” value (fixed dose week 2, LOCF) of the same compound?
The value was 0.0.

And the “Pain intensity, actual value, MEAN (SD)” value (fixed dose week 3)?
Its value is 3.9 (2.52).

What about the “Pain intensity, actual value, MAXIMUM” value (fixed dose week 3, LOCF) of the same compound?
Its value is 10.0.

What about the “Pain intensity, actual value, MEDIAN” value (fixed dose week 3, LOCF) of the same compound?
Its value is 3.3.

What about the “Pain intensity, actual value, MINIMUM” value (fixed dose week 3, LOCF) of the same compound?
The value was 0.0.

What about the “Pain intensity, actual value, MEAN (SD)” value (fixed dose week 4) of the same compound?
The value was 3.9 (2.55).

What about the “Pain intensity, actual value, MAXIMUM” value (fixed dose week 4, LOCF) of the same compound?
The value was 10.0.

And the “Pain intensity, actual value, MEDIAN” value (fixed dose week 4, LOCF)?
The value was 3.3.

What about the “Pain intensity, actual value, MINIMUM” value (fixed dose week 4, LOCF) of the same compound?
Its value is 0.0.

And the “Pain intensity, actual value, MEAN (SD)” value (fixed dose week 5)?
The value was 3.9 (2.59).

What about the “Pain intensity, actual value, MAXIMUM” value (fixed dose week 5, LOCF) of the same compound?
Its value is 10.0.

And the “Pain intensity, actual value, MEDIAN” value (fixed dose week 5, LOCF)?
Its value is 3.3.

And the “Pain intensity, actual value, MINIMUM” value (fixed dose week 5, LOCF)?
The value was 0.0.

What about the “Pain intensity, actual value, MEAN (SD)” value (fixed dose week 6) of the same compound?
Its value is 3.9 (2.58).

What about the “Pain intensity percent change from baseline to fixed dose week 6, maximum” value (fixed dose week 6, LOCF, ITT) of the same compound?
The value was 42.9%.

What about the “Pain intensity percent change from baseline to fixed dose week 6, mean (SD)” value (fixed dose week 6, LOCF, ITT) of the same compound?
The value was −47.5 (34.20) %.

And the “Pain intensity percent change from baseline to fixed dose week 6, median” value (fixed dose week 6, LOCF, ITT)?
Its value is −51.9%.

What about the “Pain intensity percent change from baseline to fixed dose week 6, minimum” value (fixed dose week 6, LOCF, ITT) of the same compound?
Its value is −100.0%.

What about the “Pain intensity, actual value, MAXIMUM” value (fixed dose week 6, LOCF) of the same compound?
Its value is 10.0.

And the “Pain intensity, actual value, MEDIAN” value (fixed dose week 6, LOCF)?
Its value is 3.3.

What about the “Pain intensity, actual value, MINIMUM” value (fixed dose week 6, LOCF) of the same compound?
The value was 0.0.
